“Also recorded” adds a separate entry of the source. Like-named read-outs stand apart in the source and are kept apart here.
Key:
[1] = system: bile canaliculi (BC) of HEPARG® cells; assay: Bile canaliculi alterations evaluation for cholestasis-DILI prediction in HEPARG® cells; type: cell-based, human; settings: for alteration of bile canaliculi (BC) revealed by fluorescent probe 15: HEPARG® cells, probe 15, versus control cells incubated only with 15, FIG. 9
Procedure: To investigate the application of fluorescent probes for predicting drug-induced cholestasis, cholestatic effects of six reference cholestatic drugs are evaluated by using two protocols.

[2] = system: BC; settings: cited from earlier work
[3] = system: Efflux transporters; settings: cited from earlier work
[4] = system: primary human hepatocyte (PHH)
Procedure: Four batches of primary human hepatocyte (PHH) are used for in vitro uptake assay:
Cryopreserved PHH are thawed in one-step Hepatocyte Thawing/Plating medium (MIL130) and then cells number and viability were evaluated with trypan blue exclusion test prior to cell treatment.
Influx study. Cryopreserved PHH are thawed in one-step Hepatocyte Thawing/Plating medium (MIL130) and then the cell number and viability are evaluated with trypan blue exclusion test prior to cell treatment. The cells were grown in MW96 at a density of 0.2*10^6/well.
Incubation for uptake evaluation. Incubation buffer: HBSS buffer containing 10 mM Herpes and 0.1% BSA, pH 7.4
The active uptake of each probe was tested according to the Test group 1 conditions. The results are presented in the table below as the percentage of active uptake compared to total uptake.

[5] = molecular target: T1, BCRP (Homo sapiens, UniProt Q9UNQ0); assay: Efflux assay approach 1: canalicular accumulation in wild-type HEPARG® hepatocytes with or without KO143 (BCRP inhibitor); type: cell-based; settings: 3 hours at 37° C., FIG. 4 image C
T1 construct: both uptake transporters and efflux transporters, such as BSEP, MRP2, Pgp and BCRP; host or cells: differentiated wild-type HepaRG hepatocytes
T1 sequence (Q9UNQ0 1-655): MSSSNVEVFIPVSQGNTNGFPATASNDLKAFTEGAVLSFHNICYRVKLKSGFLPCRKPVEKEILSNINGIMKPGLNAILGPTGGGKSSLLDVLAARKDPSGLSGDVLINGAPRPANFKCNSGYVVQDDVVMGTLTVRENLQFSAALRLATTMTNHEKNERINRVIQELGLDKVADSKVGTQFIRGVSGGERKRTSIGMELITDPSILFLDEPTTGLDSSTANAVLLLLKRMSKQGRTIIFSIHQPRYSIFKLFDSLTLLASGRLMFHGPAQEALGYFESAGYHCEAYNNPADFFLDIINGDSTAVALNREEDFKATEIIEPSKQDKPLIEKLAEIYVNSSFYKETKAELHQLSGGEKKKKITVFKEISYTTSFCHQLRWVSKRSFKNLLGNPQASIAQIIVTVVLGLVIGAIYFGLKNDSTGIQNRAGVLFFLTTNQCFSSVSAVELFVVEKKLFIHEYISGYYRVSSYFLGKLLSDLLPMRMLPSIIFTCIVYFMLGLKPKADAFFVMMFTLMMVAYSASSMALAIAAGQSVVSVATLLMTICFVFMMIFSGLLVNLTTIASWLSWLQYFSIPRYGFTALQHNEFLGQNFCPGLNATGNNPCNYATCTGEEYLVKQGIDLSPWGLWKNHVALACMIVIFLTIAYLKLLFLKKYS
Procedure: (§1) After washing with the WME containing 0.1% BSA, the cell cultures are then incubated with WME medium containing 0.1% BSA, with or without the different inhibitors (taurocholate, Verapamil, KO143) at the concentration indicated at the table E2 for 3 hours at 37° C.

[6] = molecular target: T2, Pgp (Homo sapiens, UniProt P08183); assay: Efflux assay approach 1: canalicular accumulation in wild-type HEPARG® hepatocytes with or without Verapamil (Pgp inhibitor); type: cell-based; settings: 3 hours at 37° C., FIG. 4 image D
T2 construct: both uptake transporters and efflux transporters, such as BSEP, MRP2, Pgp and BCRP; host or cells: differentiated wild-type HepaRG hepatocytes
Procedure: as §1

[7] = molecular target: T3, BSEP (Homo sapiens, UniProt O95342); assay: Efflux assay approach 2: uptake in ABC transporter vesicles (Sf9) in the presence of ATP or AMP; type: in vitro ADME; set-up: purchased Genomembrane GM3010, GM3030 and GM3050 (reagent kits); host or cells: Sf9 cells; settings: 10 minutes, FIG. 6
Procedure: Fluorescent probes were incubated with vesicles at 1 and 10 μM during 10 minutes, while the reference substrates were incubated at the test conditions indicated above. • Approach 3: specificity assessment with HEPARG® MRP2 KO
Transporter assay. Reagent kits for Vesicular Transport Assay from Genomembrane (GM3010, GM3030 and GM3050) were used to determine the specificity of ABC transporters versus tested probes.
The vesicles transfected with BSEP transporter were incubated with the 2 probes 54 and 55 in the presence of ATP or AMP in order to determine the interaction specificity between the probe and the transporter.
Target sequence in this assay (O95342 whole entry, species assumed): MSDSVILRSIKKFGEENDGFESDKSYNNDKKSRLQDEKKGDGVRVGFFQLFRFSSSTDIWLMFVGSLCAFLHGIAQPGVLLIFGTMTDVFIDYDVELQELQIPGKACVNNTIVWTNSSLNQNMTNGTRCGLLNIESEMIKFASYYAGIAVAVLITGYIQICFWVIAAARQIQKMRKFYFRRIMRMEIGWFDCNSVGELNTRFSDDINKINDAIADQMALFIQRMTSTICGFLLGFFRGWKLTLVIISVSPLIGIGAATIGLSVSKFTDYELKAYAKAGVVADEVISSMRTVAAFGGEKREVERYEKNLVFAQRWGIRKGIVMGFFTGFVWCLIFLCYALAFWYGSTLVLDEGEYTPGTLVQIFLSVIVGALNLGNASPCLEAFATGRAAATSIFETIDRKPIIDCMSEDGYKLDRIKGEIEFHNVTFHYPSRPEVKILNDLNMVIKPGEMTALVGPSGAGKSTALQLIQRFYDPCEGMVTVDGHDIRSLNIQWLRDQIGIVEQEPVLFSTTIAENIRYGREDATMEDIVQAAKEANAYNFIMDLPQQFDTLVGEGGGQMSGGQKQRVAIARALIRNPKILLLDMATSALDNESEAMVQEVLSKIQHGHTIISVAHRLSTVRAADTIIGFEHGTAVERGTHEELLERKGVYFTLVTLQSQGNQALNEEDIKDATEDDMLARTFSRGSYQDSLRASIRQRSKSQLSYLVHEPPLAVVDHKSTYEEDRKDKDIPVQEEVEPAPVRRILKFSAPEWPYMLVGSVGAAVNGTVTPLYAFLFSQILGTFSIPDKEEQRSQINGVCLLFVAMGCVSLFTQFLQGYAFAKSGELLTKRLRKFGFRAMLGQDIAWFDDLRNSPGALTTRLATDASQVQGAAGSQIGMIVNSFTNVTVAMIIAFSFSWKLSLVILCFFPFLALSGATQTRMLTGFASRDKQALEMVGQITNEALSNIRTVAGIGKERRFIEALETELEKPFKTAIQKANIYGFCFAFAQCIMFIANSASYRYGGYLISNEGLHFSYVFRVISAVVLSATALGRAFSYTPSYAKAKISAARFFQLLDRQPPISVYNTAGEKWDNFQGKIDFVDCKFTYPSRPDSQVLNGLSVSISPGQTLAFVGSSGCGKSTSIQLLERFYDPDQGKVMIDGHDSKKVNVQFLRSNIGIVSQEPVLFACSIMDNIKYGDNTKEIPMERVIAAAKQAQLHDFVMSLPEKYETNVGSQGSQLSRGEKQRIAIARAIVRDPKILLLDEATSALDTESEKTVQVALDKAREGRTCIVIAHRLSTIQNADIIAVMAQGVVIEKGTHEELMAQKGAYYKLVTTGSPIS

[8] = molecular target: T4, MRP2 (Homo sapiens, UniProt Q92887); assay: Efflux assay approach 3: canalicular accumulation in HEPARG® MRP2 KO and wild-type cells; settings: for dependence of canalicular efflux on ABC transporter MRP2: conclusion from MRP2 KO accumulation profile; for accumulation / fluorescence intensity in the BC of HEPARG® MRP2 KO cells: probes 1 to 5 μM or 3 μM CDFDA, 37° C., 30 min, FIG. 7
Procedure: (§2) Two HEPARG® cell lines are used as hepatic cell models for in vitro bile acid efflux assay.
(§3) Before the probe incubation assay, both differentiated HEPARG® wild-type and HEPARG® MRP2 KO cell cultures are washed once with Williams' Medium E (WME) with 0.1% BSA and then incubated with 1 to 5 μM of fluorescent probes (54, 55, 15) in WME with 0.1% BSA or 3 μM of CDFDA in WME at 37° C. for 30 min.
(§4) After incubation, the cell cultures are washed 4 times with WME medium containing 0.5% DMSO and 2% FBS.
(§5) The cell cultures are then observed with a fluorescence microscope and the cell images are taken and compared.
(§6) Both the differentiated wild-type HEPARG®™ and MPR2-KO HEPARG® cells are thawed in HEPARG® Thawing/Plating/General Purpose medium (MIL600/ADD670) and cultured in HEPARG® Maintenance/Metabolism Medium (MIL600/ADD620) (according to the user guide of Biopredic International). Fourteen to twenty days after cell seeding and maintenance, the fully differentiated and polarized cell cultures of both the wild-type and MRP2-KO HEPARG® cells are ready and used for the characterization of biological effects of fluorescent probes in term of specific Efflux Transporter-Mediated efflux of probes in the bile canaliculi of HEPARG® hepatocytes.

[9] = molecular target: T5, NTCP (Homo sapiens, UniProt Q14973); assay: Uptake evaluation, Test group 2: probe uptake in PHH with Myrcludex (NTCP inhibitor); type: in vitro ADME; settings: PHH pre-incubated 20 minutes with inhibitor, probe 5 μM, 30 minutes at 37° C.
T5 construct: Cryopreserved PHH are thawed in one-step Hepatocyte Thawing/Plating medium; endogenous in cells; host or cells: cryopreserved primary human hepatocytes (PHH)
T5 sequence (Q14973 1-349): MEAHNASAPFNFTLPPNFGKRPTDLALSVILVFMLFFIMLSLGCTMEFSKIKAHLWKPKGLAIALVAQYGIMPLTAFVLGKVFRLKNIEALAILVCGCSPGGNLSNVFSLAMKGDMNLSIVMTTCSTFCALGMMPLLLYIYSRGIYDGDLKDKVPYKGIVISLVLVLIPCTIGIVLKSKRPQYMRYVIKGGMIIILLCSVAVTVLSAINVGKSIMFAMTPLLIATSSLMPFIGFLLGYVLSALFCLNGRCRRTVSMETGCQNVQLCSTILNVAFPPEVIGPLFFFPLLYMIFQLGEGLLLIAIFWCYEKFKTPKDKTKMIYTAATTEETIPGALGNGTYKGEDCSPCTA

[10] = system: OCT; assay: Uptake evaluation, Test group 2: probe uptake in PHH with Mpp (OCT inhibitor); type: in vitro ADME, human; settings: PHH pre-incubated 20 minutes with inhibitor, probe 5 μM, 30 minutes at 37° C.
[11] = system: OATPs; settings: PHH pre-incubated 20 minutes with inhibitor, probe 5 μM, 30 minutes at 37° C.
[12] = system: OATs; assay: Uptake evaluation, Test group 2: probe uptake in PHH with Indomethacine/Diclofenac (OATs inhibitor); settings: PHH pre-incubated 20 minutes with inhibitor, probe 5 μM, 30 minutes at 37° C.
[13] = system: OATs
[14] = molecular target: T4, MRP2
Procedure: as §2, §3, §4, §5, §6

[15] = molecular target: T3, BSEP; assay: Efflux assay approach 1: canalicular accumulation in wild-type HEPARG® hepatocytes with or without taurocholate (BSEP competitive inhibitor); type: cell-based; set-up: both uptake transporters and efflux transporters, such as BSEP, MRP2, Pgp and BCRP; host or cells: differentiated wild-type HepaRG hepatocytes; settings: for dependence of efflux into BC on BSEP: conclusion in words; for probe fluorescence / accumulation in BC with taurocholate: taurocholate as competitive inhibitor of BSEP, 3 hours at 37° C., FIG. 4 image B, FIG. 5
Procedure: as §1
Target sequence in this assay (O95342 whole entry): as the sequence (O95342 whole entry, species assumed) above

T4 sequence (Q92887 whole entry): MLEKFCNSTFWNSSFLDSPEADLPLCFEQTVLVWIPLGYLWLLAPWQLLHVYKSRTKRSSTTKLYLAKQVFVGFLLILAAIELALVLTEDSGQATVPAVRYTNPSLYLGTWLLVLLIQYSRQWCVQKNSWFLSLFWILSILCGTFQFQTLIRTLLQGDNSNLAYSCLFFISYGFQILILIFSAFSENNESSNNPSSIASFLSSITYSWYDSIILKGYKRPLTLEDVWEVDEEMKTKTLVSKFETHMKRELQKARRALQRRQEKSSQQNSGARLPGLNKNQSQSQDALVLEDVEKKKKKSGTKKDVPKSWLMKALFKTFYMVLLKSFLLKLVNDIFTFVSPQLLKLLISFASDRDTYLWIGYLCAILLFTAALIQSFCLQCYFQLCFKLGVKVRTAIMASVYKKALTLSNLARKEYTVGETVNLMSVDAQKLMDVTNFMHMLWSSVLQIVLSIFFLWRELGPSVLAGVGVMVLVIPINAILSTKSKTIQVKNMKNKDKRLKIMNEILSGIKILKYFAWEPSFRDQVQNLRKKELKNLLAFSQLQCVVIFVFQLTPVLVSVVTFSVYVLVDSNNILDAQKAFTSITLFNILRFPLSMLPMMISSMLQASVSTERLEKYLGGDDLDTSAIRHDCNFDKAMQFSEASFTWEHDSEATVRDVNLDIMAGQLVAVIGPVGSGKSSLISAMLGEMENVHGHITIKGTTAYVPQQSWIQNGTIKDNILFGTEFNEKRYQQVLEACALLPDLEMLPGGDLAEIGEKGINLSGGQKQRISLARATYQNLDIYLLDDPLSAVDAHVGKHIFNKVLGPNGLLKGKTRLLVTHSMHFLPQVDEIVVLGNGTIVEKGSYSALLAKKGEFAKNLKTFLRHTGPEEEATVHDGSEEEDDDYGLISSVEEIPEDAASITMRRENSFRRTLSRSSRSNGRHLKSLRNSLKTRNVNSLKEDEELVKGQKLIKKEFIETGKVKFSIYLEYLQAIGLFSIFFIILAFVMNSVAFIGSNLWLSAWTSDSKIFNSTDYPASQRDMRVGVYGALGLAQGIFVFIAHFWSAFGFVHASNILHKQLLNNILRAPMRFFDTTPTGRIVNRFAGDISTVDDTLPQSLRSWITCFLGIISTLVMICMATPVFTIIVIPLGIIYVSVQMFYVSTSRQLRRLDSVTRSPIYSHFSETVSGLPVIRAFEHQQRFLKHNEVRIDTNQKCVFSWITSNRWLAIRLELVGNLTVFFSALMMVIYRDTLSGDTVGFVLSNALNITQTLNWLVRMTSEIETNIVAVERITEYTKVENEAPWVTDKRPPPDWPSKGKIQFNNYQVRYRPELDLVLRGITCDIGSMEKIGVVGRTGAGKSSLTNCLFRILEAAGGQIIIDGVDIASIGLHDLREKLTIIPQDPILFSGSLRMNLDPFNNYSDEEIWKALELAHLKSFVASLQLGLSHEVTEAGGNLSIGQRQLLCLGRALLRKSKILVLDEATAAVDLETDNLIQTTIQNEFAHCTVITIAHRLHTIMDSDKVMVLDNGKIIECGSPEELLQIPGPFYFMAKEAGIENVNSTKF
T2 sequence (P08183 whole entry): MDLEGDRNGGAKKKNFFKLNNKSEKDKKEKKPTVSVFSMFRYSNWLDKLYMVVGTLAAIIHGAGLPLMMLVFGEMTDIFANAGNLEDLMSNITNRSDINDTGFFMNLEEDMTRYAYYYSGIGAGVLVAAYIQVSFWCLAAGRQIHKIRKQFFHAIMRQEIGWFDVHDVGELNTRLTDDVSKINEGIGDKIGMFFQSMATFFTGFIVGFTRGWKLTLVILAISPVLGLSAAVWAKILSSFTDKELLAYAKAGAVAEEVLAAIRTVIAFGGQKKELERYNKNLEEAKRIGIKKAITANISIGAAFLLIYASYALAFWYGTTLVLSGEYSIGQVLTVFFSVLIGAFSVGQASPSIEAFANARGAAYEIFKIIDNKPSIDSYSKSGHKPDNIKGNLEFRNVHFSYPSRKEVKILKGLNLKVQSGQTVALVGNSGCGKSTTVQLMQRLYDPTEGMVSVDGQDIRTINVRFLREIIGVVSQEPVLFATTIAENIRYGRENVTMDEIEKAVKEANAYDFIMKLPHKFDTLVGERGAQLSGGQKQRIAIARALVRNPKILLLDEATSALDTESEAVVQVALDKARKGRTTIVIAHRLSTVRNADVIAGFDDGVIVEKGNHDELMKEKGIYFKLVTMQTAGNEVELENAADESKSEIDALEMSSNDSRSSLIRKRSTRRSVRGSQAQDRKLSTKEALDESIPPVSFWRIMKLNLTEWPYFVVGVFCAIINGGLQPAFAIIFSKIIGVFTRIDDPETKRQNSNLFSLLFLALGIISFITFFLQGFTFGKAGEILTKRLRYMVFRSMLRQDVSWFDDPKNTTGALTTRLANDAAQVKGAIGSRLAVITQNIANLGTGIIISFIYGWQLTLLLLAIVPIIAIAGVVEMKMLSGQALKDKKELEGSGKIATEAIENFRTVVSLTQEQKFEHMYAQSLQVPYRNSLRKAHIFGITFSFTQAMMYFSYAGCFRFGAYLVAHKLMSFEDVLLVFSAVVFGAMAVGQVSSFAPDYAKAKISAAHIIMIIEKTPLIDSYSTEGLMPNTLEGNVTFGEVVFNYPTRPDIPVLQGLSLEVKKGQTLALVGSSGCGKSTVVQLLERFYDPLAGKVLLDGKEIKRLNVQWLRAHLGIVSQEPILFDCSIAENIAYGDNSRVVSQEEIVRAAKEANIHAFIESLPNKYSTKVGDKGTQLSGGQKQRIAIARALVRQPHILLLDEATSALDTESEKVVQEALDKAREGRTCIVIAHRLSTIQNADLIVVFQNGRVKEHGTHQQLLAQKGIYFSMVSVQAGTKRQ

## COc1ccccc1Oc1c(NS(=O)(=O)c2ccc(C(C)(C)C)cc2)nc(-c2ncccn2)nc1OCCO [Bosentan]
[1]
  alteration of bile canaliculi (BC) revealed by fluorescent probe 15: important dilation
[2]
  Theoretical effect: Induced effect on BC: dilation
[3]
  Theoretical effect: Efflux transporters interaction: MRP2/BSEP

## Cc1c(C)c2c(c(C)c1O)CCC(C)(COc1ccc(CC3SC(=O)NC3=O)cc1)O2 (centres unmarked) [Troglitazone]
[2]
  Theoretical effect: Induced effect on BC: constriction

## CC(=O)Nc1ccc(O)cc1 [Acetaminophen]
[1]; drug 3 hours at 37° C., then probe CDFDA 3 μM 30 min, FIG. 8A
  Protocol 1 Effects on BC morphology and BA transporters CDFDA: No effect
[2]
  Theoretical effect: Induced effect on BC: None
[3]
  Theoretical effect: Efflux transporters interaction: None

## COC(=O)CNC(=O)C(CCCCNC(=O)CCc1ccc2n1[B-](F)(F)[N+]1=C(C)C=C(C)C1=C2)NC(=O)CCC(C)C1CCC2C3C(O)CC4CC(O)CCC4(C)C3CCC12C [Compound 55, Methyl-N6-(3-(5,5-difluoro-7,9-dimethyl-5H-dipyrrolo[1,2-c:2′,1′-f][1,3,2]diazaborinin-3-yl)propanoyl)-N2-((4R)-4-((3R,7S,10S,13R,17R)-3,7-dihydroxy-10,13-dimethylhexadecahydro-1H-cyclopenta[a]phenanthren-17-yl)pentanoyl)-L-lysylglycinate]
[4]
  type of probe uptake (active transport or passive diffusion): mainly mediated by transporters
[5]
  BC accumulation with inhibitor of BCRP (KO143) versus control cells: independent
[6]
  BC accumulation with inhibitor of Pgp (Verapamil) versus control cells: independent
[7]; probe at 10 μM
  uptake inside the membrane vesicles in the presence of ATP compared to AMP: significant uptake
[8]
  dependence of canalicular efflux on ABC transporter MRP2: independent
  accumulation / fluorescence intensity in the BC of HEPARG® MRP2 KO cells: stronger fluorescence intensity

## Tauro-nor-THCA-24-DBD [reference compound]
[9]
  % of inhibition Myrcludex (NTCP inhibitor): 81%
[10]
  % of inhibition Mpp (OCT inhibitor): 26%
[11]
  % of inhibition Rifampicine (OATPs inhibitor): 24%
[12]
  % of inhibition Indomethacine/Diclofenac (OATs inhibitor): 50%

## COC(=O)[C@H](CCCCNc1ccc([N+](=O)[O-])c2nonc12)NC(=O)CC[C@@H](C)C1CCC2C3C(CC[C@@]21C)[C@@]1(C)CC[C@@H](O)CC1C[C@@H]3O (stereo partly drawn) [Compound 15, Methyl-N2-((4R)-4-((3R,7S,10S,13R)-3,7-dihydroxy-10,13-dimethylhexadecahydro-1H-cyclopenta[a]phenanthren-17-yl)pentanoyl)-N6-(7-nitrobenzo[c][1,2,5]oxadiazol-4-yl)-L-lysinate]
[4]; human, 30 min, 5 μM, pH 7.4
  % Active uptake (Mean value): 31%
[9]
  % of inhibition Myrcludex (NTCP inhibitor): 16%
[10]
  % of inhibition Mpp (OCT inhibitor): 11%
[11]
  % of inhibition Rifampicine (OATPs inhibitor): 34%
[13]
  involvement of OATs in the uptake of the probe: mainly dependent on OAT family
[14]
  dependence of canalicular efflux on ABC transporter MRP2: independent
[15]
  dependence of efflux into BC on BSEP: weakly dependent on BSEP
  probe fluorescence / accumulation in BC with taurocholate: partial inhibition profile

## CN(C)CCCN1c2ccccc2Sc2ccc(Cl)cc21 [Chlorpromazine]
[1]; listed as CPZ
  alteration of bile canaliculi (BC) revealed by fluorescent probe 15: remarkable constriction of BC; also recorded: detectable constriction of BC
[2]
  Theoretical effect: Induced effect on BC: constriction
[3]
  Theoretical effect: Efflux transporters interaction: MRP2/BSEP

## O=S(=O)(c1cccc2cnccc12)N1CCCNCC1 [Fasudil]
[3]
  Theoretical effect: Efflux transporters interaction: No

## COC(=O)C(CCCCNC(=O)CCc1ccc2n1[B-](F)(F)[N+]1=C(C)C=C(C)C1=C2)NC(=O)CCC(C)C1CCC2C3C(O)CC4CC(O)CCC4(C)C3CCC12C [Compound 54, Methyl N6-(3-(5,5-difluoro-7,9-dimethyl-5H-dipyrrolo[1,2-c:2′,1′-f][1,3,2]diazaborinin-3-yl)propanoyl)-N2-((4R)-4-((3R,7S,10S,13R,17R)-3,7-dihydroxy-10,13-dimethylhexadecahydro-1H-cyclopenta[a]phenanthren-17-yl)pentanoyl)-L-lysinate]
[4]
  type of probe uptake (active transport or passive diffusion): mainly mediated by transporters
[5]
  BC accumulation with inhibitor of BCRP (KO143) versus control cells: no visible difference
[6]
  BC accumulation with inhibitor of Pgp (Verapamil) versus control cells: no visible difference
[7]; whatever probe concentrations (1 and 10 μM)
  uptake in vesicles ATP/AMP: no difference
[8]
  dependence of canalicular efflux on ABC transporter MRP2: independent
  accumulation / fluorescence intensity in the BC of HEPARG® MRP2 KO cells: stronger fluorescence intensity
[15]
  dependence of efflux into BC on BSEP: substrate of BSEP
  probe fluorescence / accumulation in BC with taurocholate: significant decrease
[15]; without any inhibitor, FIG. 4 image A
  accumulation of probe fluorescence in BC of HEPARG® hepatocytes: significant accumulation

— patent US20220308043A1, “FLUORESCENT PROBES FOR IDENTIFICATION AND QUANTIFICATION OF HEPATIC TRANSPORTERS IN VITRO AND IN VIVO” (Université d'Orléans, priority 2021, published 2022)
